Consider 37 compounds from ChEMBL document CHEMBL2203157, “5-(1,3-Benzothiazol-6-yl)-4-(4-methyl-1,3-thiazol-2-yl)-1H-imidazole derivatives as potent and selective transforming growth factor-β type I receptor inhibitors” (Bioorg Med Chem, 2012).

In data set [1] the target is T1, TGF-beta receptor type-1 (Homo sapiens, UniProt P36897).
T1 sequence (P36897 whole entry): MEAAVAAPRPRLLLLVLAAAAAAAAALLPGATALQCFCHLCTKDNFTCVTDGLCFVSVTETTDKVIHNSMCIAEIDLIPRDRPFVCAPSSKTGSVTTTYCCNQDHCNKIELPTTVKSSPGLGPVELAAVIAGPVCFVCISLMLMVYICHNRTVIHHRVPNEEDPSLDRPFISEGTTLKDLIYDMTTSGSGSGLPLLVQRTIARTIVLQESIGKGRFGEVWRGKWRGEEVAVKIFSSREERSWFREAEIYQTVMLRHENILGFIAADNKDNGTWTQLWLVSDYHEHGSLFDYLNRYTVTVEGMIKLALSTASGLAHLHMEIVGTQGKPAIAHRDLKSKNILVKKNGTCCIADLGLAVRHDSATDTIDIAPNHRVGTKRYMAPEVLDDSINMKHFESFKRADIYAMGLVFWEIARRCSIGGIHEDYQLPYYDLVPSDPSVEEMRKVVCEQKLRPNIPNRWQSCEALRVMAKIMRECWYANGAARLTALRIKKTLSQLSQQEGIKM
Put plainly: Inhibition of human ALK5 using GST-tagged Smad3 as substrate assessed as substrate phosphorylation after 30 mins by ELISA. A general note: ELISA stands for enzyme-linked immunosorbent assay.

The target in data set [2] is T1, TGF-beta receptor type-1. Kind of data set: Inhibition of ALK5-mediated […]-induced Smad2/3 phosphorylation in human A549 cells preincubated for 2 hrs before addition of […] after 1 hr by fluorescence analysis. The format is cell-based.
Data set [3] can be described thus: Solubility of the compound by HPLC analysis. Type of data set: physicochemical.
For data set [4], the system named is Mus musculus. Kind of data set: Inhibition of ALK5-mediated Smad2 phosphorylation in skin of C57BL/6 mouse depilation model at 3% administered topically measured after 8 hrs by Western blot analysis. The format is functional.
The test system of data set [5] is Mus musculus. Put plainly: Inhibition of ALK5-mediated Smad2 phosphorylation in skin of C57BL/6 mouse depilation model at 1% administered topically measured after 8 hrs by Western blot analysis. The format is functional. Background: In western blotting, separated proteins are transferred to a membrane and probed.
For data set [6], the target named is Vascular endothelial growth factor receptor 2 (Homo sapiens, UniProt P35968). Kind of data set: Inhibition of KDR.

≈ marks a conversion by molar mass, not a printed value.

Vascular endothelial growth factor receptor 2, sequence (P35968 whole entry): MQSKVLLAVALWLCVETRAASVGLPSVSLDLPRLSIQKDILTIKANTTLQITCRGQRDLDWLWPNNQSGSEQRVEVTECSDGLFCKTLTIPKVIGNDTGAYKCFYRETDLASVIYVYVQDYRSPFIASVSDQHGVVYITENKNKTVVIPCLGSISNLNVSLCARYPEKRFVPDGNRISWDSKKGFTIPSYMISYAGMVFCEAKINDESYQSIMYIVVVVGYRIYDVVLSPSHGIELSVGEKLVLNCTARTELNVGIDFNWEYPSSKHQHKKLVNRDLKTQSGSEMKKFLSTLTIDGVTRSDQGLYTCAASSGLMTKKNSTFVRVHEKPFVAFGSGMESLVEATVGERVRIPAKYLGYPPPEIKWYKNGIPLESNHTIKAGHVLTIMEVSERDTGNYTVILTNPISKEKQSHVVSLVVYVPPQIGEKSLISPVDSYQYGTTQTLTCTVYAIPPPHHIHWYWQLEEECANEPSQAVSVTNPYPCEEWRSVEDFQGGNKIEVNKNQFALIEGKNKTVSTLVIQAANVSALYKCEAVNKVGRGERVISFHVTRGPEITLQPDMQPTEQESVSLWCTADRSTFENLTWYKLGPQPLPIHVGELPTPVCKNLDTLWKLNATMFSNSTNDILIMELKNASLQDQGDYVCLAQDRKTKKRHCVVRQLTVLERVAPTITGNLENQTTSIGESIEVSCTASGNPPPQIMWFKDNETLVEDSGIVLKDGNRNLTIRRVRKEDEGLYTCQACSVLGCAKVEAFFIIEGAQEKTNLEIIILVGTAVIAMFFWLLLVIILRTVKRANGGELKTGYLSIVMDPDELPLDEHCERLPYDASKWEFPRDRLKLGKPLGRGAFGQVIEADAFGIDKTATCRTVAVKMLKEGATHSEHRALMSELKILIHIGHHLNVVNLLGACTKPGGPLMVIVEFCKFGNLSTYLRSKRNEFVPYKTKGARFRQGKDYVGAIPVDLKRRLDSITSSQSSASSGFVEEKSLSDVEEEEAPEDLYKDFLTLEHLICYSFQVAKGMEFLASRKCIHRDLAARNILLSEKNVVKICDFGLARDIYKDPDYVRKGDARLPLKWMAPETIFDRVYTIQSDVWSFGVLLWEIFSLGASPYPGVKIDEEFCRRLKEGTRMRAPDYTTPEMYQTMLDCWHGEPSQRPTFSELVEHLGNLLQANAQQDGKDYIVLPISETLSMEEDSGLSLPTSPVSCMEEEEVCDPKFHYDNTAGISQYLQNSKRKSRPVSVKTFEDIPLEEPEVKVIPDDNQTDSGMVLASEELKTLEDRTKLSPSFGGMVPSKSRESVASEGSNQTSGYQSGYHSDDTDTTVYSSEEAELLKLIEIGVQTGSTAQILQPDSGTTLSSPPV

On to `Cc1csc(-c2nc[nH]c2-c2ccc3ncsc3c2)n1`, for which the IC50 (commonly the concentration needed to halve the response being measured) on TGF-beta receptor type-1 [1] is 2.7 nM; at TGF-beta receptor type-1 [2], 8.7 nM.
For the compound `Cc1csc(-c2nc(C)[nH]c2-c2ccc3ncsc3c2)n1`, the IC50 at TGF-beta receptor type-1 [1] was 5.8 nM; at TGF-beta receptor type-1 [2], 17 nM. For the same compound, in data set [3], the solubility (commonly how much of the substance goes into solution per volume) stood at 18.3 mg/mL (≈ 58.6 mM).
Turning to `CCc1nc(-c2nc(C)cs2)c(-c2ccc3ncsc3c2)[nH]1`, the values for the IC50 on TGF-beta receptor type-1 [1] and against TGF-beta receptor type-1 [2] were 9 nM and 35 nM, respectively.
For `CCCc1nc(-c2nc(C)cs2)c(-c2ccc3ncsc3c2)[nH]1`, the IC50 on TGF-beta receptor type-1 [1] worked out at 8.1 nM; against TGF-beta receptor type-1 [2], 33 nM. Moreover, the solubility in data set [3] is 14.9 mg/mL (≈ 43.8 mM).
`Cc1csc(-c2nc(C(C)C)[nH]c2-c2ccc3ncsc3c2)n1`: the IC50 at TGF-beta receptor type-1 [1] came to 8.2 nM; against TGF-beta receptor type-1 [2], 48 nM.
The matching figures for `Cc1csc(-c2nc(CC(C)C)[nH]c2-c2ccc3ncsc3c2)n1`: 9 nM and 43 nM.
`Cc1csc(-c2nc(C(C)(C)C)[nH]c2-c2ccc3ncsc3c2)n1`: the results for the IC50 at TGF-beta receptor type-1 [1] and on TGF-beta receptor type-1 [2] were 14 nM and 68 nM, respectively. In addition, the solubility in data set [3] was found to be 3.49 mg/mL (≈ 9.84 mM).
As to `CCCCCCc1nc(-c2nc(C)cs2)c(-c2ccc3ncsc3c2)[nH]1`, the IC50 worked out at 7 nM on TGF-beta receptor type-1 [1] and 120 nM against TGF-beta receptor type-1 [2].
Regarding `Cc1csc(-c2nc(C(F)(F)F)[nH]c2-c2ccc3ncsc3c2)n1`, the IC50 at TGF-beta receptor type-1 [1] was found to be 5.8 nM; against TGF-beta receptor type-1 [2], 49 nM. The compound further displayed a solubility in data set [3] of 2.4 mg/mL (≈ 6.55 mM).
For `Cc1csc(-c2nc(C3CC3)[nH]c2-c2ccc3ncsc3c2)n1`, in that order: 8.8 nM, 45 nM and 23.6 mg/mL (≈ 69.7 mM).
Consider `Cc1csc(-c2nc(C3CCCC3)[nH]c2-c2ccc3ncsc3c2)n1`, for which the results for the IC50 on TGF-beta receptor type-1 [1] and against TGF-beta receptor type-1 [2] were 8.7 nM and 40 nM, respectively. Also, the solubility in data set [3] came to 19.8 mg/mL (≈ 54 mM).
For `Cc1csc(-c2nc(C3CCCCC3)[nH]c2-c2ccc3ncsc3c2)n1`, in that order: 12 nM, 75 nM and more than 31.8 mg/mL.
Turning to `Cc1csc(-c2nc(C3CCC(=O)CC3)[nH]c2-c2ccc3ncsc3c2)n1`, the IC50 came to 23 nM at TGF-beta receptor type-1 [1] and 89 nM against TGF-beta receptor type-1 [2].
Consider `Cc1csc(-c2nc(C3CCOCC3)[nH]c2-c2ccc3ncsc3c2)n1`, for which the IC50 at TGF-beta receptor type-1 [1] came out at 21 nM; against TGF-beta receptor type-1 [2], 99 nM. The same compound yielded a solubility in data set [3] of 26.1 mg/mL (≈ 68.2 mM).
On to `Cc1csc(-c2nc(C3CCNCC3)[nH]c2-c2ccc3ncsc3c2)n1`, for which the IC50 on TGF-beta receptor type-1 [1] was determined as 240 nM.
On to `Cc1csc(-c2[nH]c(CN3CCCC3=O)nc2-c2ccc3ncsc3c2)n1`, for which the IC50 on TGF-beta receptor type-1 [1] came out at 26 nM; against TGF-beta receptor type-1 [2], 130 nM.
Turning to `CCCC(=O)N(C)Cc1nc(-c2ccc3ncsc3c2)c(-c2nc(C)cs2)[nH]1`, the half-inhibitory concentration (IC50) is 28 nM on TGF-beta receptor type-1 [1] and 110 nM against TGF-beta receptor type-1 [2].
Turning to `CCCCNCc1nc(-c2nc(C)cs2)c(-c2ccc3ncsc3c2)[nH]1`, the IC50 at TGF-beta receptor type-1 [1] was found to be 13 nM; at TGF-beta receptor type-1 [2], 72 nM.
With `CCCC(=O)CCc1nc(-c2nc(C)cs2)c(-c2ccc3ncsc3c2)[nH]1`, the IC50 was 9 nM on TGF-beta receptor type-1 [1] and 42 nM on TGF-beta receptor type-1 [2].
Consider `CCCCNC(=O)c1nc(-c2nc(C)cs2)c(-c2ccc3ncsc3c2)[nH]1`, for which the IC50 on TGF-beta receptor type-1 [1] was determined as 45 nM; against TGF-beta receptor type-1 [2], 420 nM.
`CCNC(=O)CCc1nc(-c2nc(C)cs2)c(-c2ccc3ncsc3c2)[nH]1`: the results for the IC50 on TGF-beta receptor type-1 [1] and on TGF-beta receptor type-1 [2] were 12 nM and 71 nM, respectively.
For `CNC(=O)CCCc1nc(-c2nc(C)cs2)c(-c2ccc3ncsc3c2)[nH]1`, in that order: 37 nM and 230 nM.
For `Cc1csc(-c2nc(CCCCC(N)=O)[nH]c2-c2ccc3ncsc3c2)n1`, in that order: 8.3 nM and 190 nM.
For `CCNC(=O)OCc1nc(-c2nc(C)cs2)c(-c2ccc3ncsc3c2)[nH]1`, the values for the IC50 on TGF-beta receptor type-1 [1] and on TGF-beta receptor type-1 [2] were 7.2 nM and 93 nM, respectively.
For `CCC(=O)NCCc1nc(-c2nc(C)cs2)c(-c2ccc3ncsc3c2)[nH]1`, in that order: 25 nM and 130 nM.
For `CC(=O)NCCCc1nc(-c2nc(C)cs2)c(-c2ccc3ncsc3c2)[nH]1`, in that order: 26 nM and 150 nM.
For `CCNC(=O)NCc1nc(-c2nc(C)cs2)c(-c2ccc3ncsc3c2)[nH]1`, in that order: 11 nM and 130 nM.
Turning to `CCCS(=O)(=O)NCc1nc(-c2nc(C)cs2)c(-c2ccc3ncsc3c2)[nH]1`, the IC50 is 17 nM on TGF-beta receptor type-1 [1] and 150 nM at TGF-beta receptor type-1 [2].
The matching figures for `CCOC(=O)NCc1nc(-c2nc(C)cs2)c(-c2ccc3ncsc3c2)[nH]1`: 4.5 nM and 35 nM.
For `Cc1csc(-c2nc(CN3CCOC3=O)[nH]c2-c2ccc3ncsc3c2)n1`, in that order: 8.1 nM and 92 nM.
With `COC(=O)NCc1nc(-c2nc(C)cs2)c(-c2ccc3ncsc3c2)[nH]1`, the IC50 at TGF-beta receptor type-1 [1] worked out at 7.7 nM; at TGF-beta receptor type-1 [2], 38 nM. The same compound registered a solubility in data set [3] of 3.93 mg/mL (≈ 10.2 mM).
For `CCCOC(=O)NCc1nc(-c2nc(C)cs2)c(-c2ccc3ncsc3c2)[nH]1`, in that order: 7.3 nM, 36 nM and 9.8 mg/mL (≈ 23.7 mM).
For `CCCCOC(=O)NCc1nc(-c2nc(C)cs2)c(-c2ccc3ncsc3c2)[nH]1`, the IC50 on TGF-beta receptor type-1 [1] worked out at 9.1 nM; at TGF-beta receptor type-1 [2] it was 74 nM.
For `CCCCCOC(=O)NCc1nc(-c2nc(C)cs2)c(-c2ccc3ncsc3c2)[nH]1`, in that order: 11 nM and 140 nM.
Turning to `Cc1csc(-c2nc(CNC(=O)OC(C)C)[nH]c2-c2ccc3ncsc3c2)n1`, the IC50 at TGF-beta receptor type-1 [1] is 8.6 nM; at TGF-beta receptor type-1 [2], 41 nM. In data set [3], this compound came in with a solubility of 18.2 mg/mL (≈ 44 mM).
For the compound `Cc1csc(-c2nc(CNC(=O)OCC(C)C)[nH]c2-c2ccc3ncsc3c2)n1`, the “inhibition (INH)” value in the data set on Mus musculus [4] came to 90%; in the data set on Mus musculus [5], 59%. Further, the values for the IC50 (on TGF-beta receptor type-1 [1]; against TGF-beta receptor type-1 [2]; in data set [6]) were 5.5 nM, 36 nM and 1080 nM, respectively.
As to `Cc1csc(-c2nc(CNC(=O)OCC(C)(C)C)[nH]c2-c2ccc3ncsc3c2)n1`, the IC50 worked out at 9.3 nM on TGF-beta receptor type-1 [1] and 79 nM against TGF-beta receptor type-1 [2].
